Results published in BindingDB's records for doi:10.1021/jm061152t (Abbott Laboratories, 2007).
“And” between values parts separate entries of the source, which are not always exact repeats. Equal entries are not always repeated.

How the values were obtained:
[1] = The binding affinities (Ki) of compounds were determined using fluorescence polarization assays (FPA) that measure their ability to competitively displace a Bad-derived peptide from Bcl-xL. IC50 values were binding affinities measured in the presence of 10% human serum. Compound efficacy (EC50) in a cellular co; details: pH 7.4
[2] = The binding affinities (Ki) of compounds were determined using fluorescence polarization assays (FPA) that measure their ability to competitively displace a Bad-derived peptide from Bcl-xL. Compound efficacy (EC50) in a cellular context was evaluated by testing their ability to reverse the protection from cytokine w

SMILES	EC50 [1]	EC50 [2]	EC50 ([2]; pH 7.4)
COC1(Cc2ccccc2)CCN(c2ccc(C(=O)NS(=O)(=O)c3ccc(N[C@H](CCN(C)C)CSc4ccccc4)c([N+](=O)[O-])c3)cc2)CC1 [4-(4-benzyl-4-methoxypiperidin-1-yl)-N-[(4-{[(2R)-4-(dimethylamino)-1-(phenylsulfanyl)butan-2-yl]amino}-3-nitrobenzene)sulfonyl]benzamide]	680 nM	930 nM	–
COC1(CC2CCCCC2)CCN(c2ccc(C(=O)NS(=O)(=O)c3ccc(N[C@H](CCN(C)C)CSc4ccccc4)c([N+](=O)[O-])c3)cc2)CC1 [4-[4-(cyclohexylmethyl)-4-methoxypiperidin-1-yl]-N-[(4-{[(2R)-4-(dimethylamino)-1-(phenylsulfanyl)butan-2-yl]amino}-3-nitrobenzene)sulfonyl]benzamide]	320 nM	200 nM	–
COC1(Cc2ccccc2Br)CCN(c2ccc(C(=O)NS(=O)(=O)c3ccc(N[C@H](CCN(C)C)CSc4ccccc4)c([N+](=O)[O-])c3)cc2)CC1 [4-{4-[(2-bromophenyl)methyl]-4-methoxypiperidin-1-yl}-N-[(4-{[(2R)-4-(dimethylamino)-1-(phenylsulfanyl)butan-2-yl]amino}-3-nitrobenzene)sulfonyl]benzamide]	100 nM	200 nM	–
COC1(Cc2ccccc2Cl)CCN(c2ccc(C(=O)NS(=O)(=O)c3ccc(N[C@H](CCN(C)C)CSc4ccccc4)c([N+](=O)[O-])c3)cc2)CC1 [4-{4-[(2-chlorophenyl)methyl]-4-methoxypiperidin-1-yl}-N-[(4-{[(2R)-4-(dimethylamino)-1-(phenylsulfanyl)butan-2-yl]amino}-3-nitrobenzene)sulfonyl]benzamide]	230 nM	180 nM	–
CN(C)CC[C@H](CSc1ccccc1)Nc1ccc(S(=O)(=O)NC(=O)c2ccc(N3CCC(=Cc4ccccc4Cl)CC3)cc2)cc1[N+](=O)[O-] [4-{4-[(2-chlorophenyl)methylidene]piperidin-1-yl}-N-[(4-{[(2R)-4-(dimethylamino)-1-(phenylsulfanyl)butan-2-yl]amino}-3-nitrobenzene)sulfonyl]benzamide]	350 nM	450 nM	–
CN(C)CC[C@H](CSc1ccccc1)Nc1ccc(S(=O)(=O)NC(=O)c2ccc(N3CCC(=Cc4ccccc4C#N)CC3)cc2)cc1[N+](=O)[O-] [4-{4-[(2-cyanophenyl)methylidene]piperidin-1-yl}-N-[(4-{[(2R)-4-(dimethylamino)-1-(phenylsulfanyl)butan-2-yl]amino}-3-nitrobenzene)sulfonyl]benzamide]	1100 nM	1600 nM	–
COC1(Cc2cccc(Cl)c2)CCN(c2ccc(C(=O)NS(=O)(=O)c3ccc(N[C@H](CCN(C)C)CSc4ccccc4)c([N+](=O)[O-])c3)cc2)CC1 [4-{4-[(3-chlorophenyl)methyl]-4-methoxypiperidin-1-yl}-N-[(4-{[(2R)-4-(dimethylamino)-1-(phenylsulfanyl)butan-2-yl]amino}-3-nitrobenzene)sulfonyl]benzamide]	250 nM	300 nM	–
COC1(Cc2ccc(Cl)cc2)CCN(c2ccc(C(=O)NS(=O)(=O)c3ccc(N[C@H](CCN(C)C)CSc4ccccc4)c([N+](=O)[O-])c3)cc2)CC1 [4-{4-[(4-chlorophenyl)methyl]-4-methoxypiperidin-1-yl}-N-[(4-{[(2R)-4-(dimethylamino)-1-(phenylsulfanyl)butan-2-yl]amino}-3-nitrobenzene)sulfonyl]benzamide]	400 nM	500 nM	–
CN(C)CC[C@H](CSc1ccccc1)Nc1ccc(S(=O)(=O)NC(=O)c2ccc(N3CCC(=Cc4ccc(Cl)cc4)CC3)cc2)cc1[N+](=O)[O-] [4-{4-[(4-chlorophenyl)methylidene]piperidin-1-yl}-N-[(4-{[(2R)-4-(dimethylamino)-1-(phenylsulfanyl)butan-2-yl]amino}-3-nitrobenzene)sulfonyl]benzamide]	620 nM	1180 nM	–
CN(C)CC[C@H](CSc1ccccc1)Nc1ccc(S(=O)(=O)NC(=O)c2ccc(N3CCC(=Cc4ccccc4C(F)(F)F)CC3)cc2)cc1[N+](=O)[O-] [N-[(4-{[(2R)-4-(dimethylamino)-1-(phenylsulfanyl)butan-2-yl]amino}-3-nitrobenzene)sulfonyl]-4-(4-{[2-(trifluoromethyl)phenyl]methylidene}piperidin-1-yl)benzamide]	150 nM	210 nM	–
CN(C)CC[C@H](CSc1ccccc1)Nc1ccc(S(=O)(=O)NC(=O)c2ccc(N3CCC(=Cc4ccc(C(F)(F)F)cc4)CC3)cc2)cc1[N+](=O)[O-] [N-[(4-{[(2R)-4-(dimethylamino)-1-(phenylsulfanyl)butan-2-yl]amino}-3-nitrobenzene)sulfonyl]-4-(4-{[4-(trifluoromethyl)phenyl]methylidene}piperidin-1-yl)benzamide]	2600 nM	3600 nM	–
COC1(CC(C)(C)C)CCN(c2ccc(C(=O)NS(=O)(=O)c3ccc(N[C@H](CCN(C)C)CSc4ccccc4)c([N+](=O)[O-])c3)cc2)CC1 [N-[(4-{[(2R)-4-(dimethylamino)-1-(phenylsulfanyl)butan-2-yl]amino}-3-nitrobenzene)sulfonyl]-4-[4-(2,2-dimethylpropyl)-4-methoxypiperidin-1-yl]benzamide]	750 nM	1000 nM	–
COC1(CC(C)C)CCN(c2ccc(C(=O)NS(=O)(=O)c3ccc(N[C@H](CCN(C)C)CSc4ccccc4)c([N+](=O)[O-])c3)cc2)CC1 [N-[(4-{[(2R)-4-(dimethylamino)-1-(phenylsulfanyl)butan-2-yl]amino}-3-nitrobenzene)sulfonyl]-4-[4-methoxy-4-(2-methylpropyl)piperidin-1-yl]benzamide]	580 nM	700 nM	–
COC1(Cc2ccccc2F)CCN(c2ccc(C(=O)NS(=O)(=O)c3ccc(N[C@H](CCN(C)C)CSc4ccccc4)c([N+](=O)[O-])c3)cc2)CC1 [N-[(4-{[(2R)-4-(dimethylamino)-1-(phenylsulfanyl)butan-2-yl]amino}-3-nitrobenzene)sulfonyl]-4-{4-[(2-fluorophenyl)methyl]-4-methoxypiperidin-1-yl}benzamide]	180 nM	100 nM	–

Other lines, results leading:

EC50 [1]	EC50 [2]	EC50 ([2]; pH 7.4)	SMILES
250 nM	350 nM	–	CN(C)CC[C@H](CSc1ccccc1)Nc1ccc(S(=O)(=O)NC(=O)c2ccc(N3CCC(=Cc4ccccc4F)CC3)cc2)cc1[N+](=O)[O-] [N-[(4-{[(2R)-4-(dimethylamino)-1-(phenylsulfanyl)butan-2-yl]amino}-3-nitrobenzene)sulfonyl]-4-{4-[(2-fluorophenyl)methylidene]piperidin-1-yl}benzamide]
300 nM	250 nM	–	COc1ccccc1C=C1CCN(c2ccc(C(=O)NS(=O)(=O)c3ccc(N[C@H](CCN(C)C)CSc4ccccc4)c([N+](=O)[O-])c3)cc2)CC1 [N-[(4-{[(2R)-4-(dimethylamino)-1-(phenylsulfanyl)butan-2-yl]amino}-3-nitrobenzene)sulfonyl]-4-{4-[(2-methoxyphenyl)methylidene]piperidin-1-yl}benzamide]
–	160 nM and 180 nM	–	CN(C)CC[C@H](CSc1ccccc1)Nc1ccc(S(=O)(=O)NC(=O)c2ccc(N3CCC(=Cc4ccccc4-c4ccccc4)CC3)cc2)cc1[N+](=O)[O-] [N-[(4-{[(2R)-4-(dimethylamino)-1-(phenylsulfanyl)butan-2-yl]amino}-3-nitrobenzene)sulfonyl]-4-{4-[(2-phenylphenyl)methylidene]piperidin-1-yl}benzamide]
–	600 nM	380 nM	CN(C)CC[C@H](CSc1ccccc1)Nc1ccc(S(=O)(=O)NC(=O)c2ccc(N3CCC(=Cc4ccc(F)cc4)CC3)cc2)cc1[N+](=O)[O-] [N-[(4-{[(2R)-4-(dimethylamino)-1-(phenylsulfanyl)butan-2-yl]amino}-3-nitrobenzene)sulfonyl]-4-{4-[(4-fluorophenyl)methylidene]piperidin-1-yl}benzamide]
–	> 20000 nM	> 20000 nM	Cc1ccc(S(=O)(=O)N2CCN(c3ccc(C(=O)NS(=O)(=O)c4ccc(N[C@H](CCN(C)C)CSc5ccccc5)c([N+](=O)[O-])c4)cc3)CC2)cc1 [N-[(4-{[(2R)-4-(dimethylamino)-1-(phenylsulfanyl)butan-2-yl]amino}-3-nitrobenzene)sulfonyl]-4-{4-[(4-methylbenzene)sulfonyl]piperazin-1-yl}benzamide]
150 nM	250 nM	–	COc1ccccc1CC1(OC)CCN(c2ccc(C(=O)NS(=O)(=O)c3ccc(N[C@H](CCN(C)C)CSc4ccccc4)c([N+](=O)[O-])c3)cc2)CC1 [N-[(4-{[(2R)-4-(dimethylamino)-1-(phenylsulfanyl)butan-2-yl]amino}-3-nitrobenzene)sulfonyl]-4-{4-methoxy-4-[(2-methoxyphenyl)methyl]piperidin-1-yl}benzamide]
150 nM	200 nM	–	COC1(Cc2ccccc2C)CCN(c2ccc(C(=O)NS(=O)(=O)c3ccc(N[C@H](CCN(C)C)CSc4ccccc4)c([N+](=O)[O-])c3)cc2)CC1 [N-[(4-{[(2R)-4-(dimethylamino)-1-(phenylsulfanyl)butan-2-yl]amino}-3-nitrobenzene)sulfonyl]-4-{4-methoxy-4-[(2-methylphenyl)methyl]piperidin-1-yl}benzamide]
35 nM	20 nM	–	COC1(Cc2ccccc2-c2ccccc2)CCN(c2ccc(C(=O)NS(=O)(=O)c3ccc(N[C@H](CCN(C)C)CSc4ccccc4)c([N+](=O)[O-])c3)cc2)CC1 [N-[(4-{[(2R)-4-(dimethylamino)-1-(phenylsulfanyl)butan-2-yl]amino}-3-nitrobenzene)sulfonyl]-4-{4-methoxy-4-[(2-phenylphenyl)methyl]piperidin-1-yl}benzamide]
600 nM	1100 nM	–	COC1(Cc2ccc(-c3ccccc3)cc2)CCN(c2ccc(C(=O)NS(=O)(=O)c3ccc(N[C@H](CCN(C)C)CSc4ccccc4)c([N+](=O)[O-])c3)cc2)CC1 [N-[(4-{[(2R)-4-(dimethylamino)-1-(phenylsulfanyl)butan-2-yl]amino}-3-nitrobenzene)sulfonyl]-4-{4-methoxy-4-[(4-phenylphenyl)methyl]piperidin-1-yl}benzamide]
